From patent US20230323296A1, “STEM CELL-LIKE MEMORY T CELLS AND USES THEREOF” (GEORGETOWN UNIVERSITY, priority 2020, published 2023) come the findings set out here.

The subject of experiment [1] is CD4+ T cells in the tumor microenvironment (TME). The experiment in a line: In vivo TSCM generation in TC-1 tumor bearing mice (FACS of tumors). Particulars: MEKi 10 mg/Kg oral gavage, 15 doses. Here is the method: Mice were treated and tumors were isolated. The frequency of CD4^+ cells in variously treated mice (UT, untreated; Vax; MEKi, MEK1/2 inhibitor only; and Vax +MEKi, both E7 and MEK inhibitor) were determined. Error bars represent mean±SEM. (^NSnon-significant, *p≤0.05, **p≤0.01). For Vax treated mice, The CTL epitope from HPV16 E749-57 (RAHYNIVTF, 100 μg/mouse) was used mixed with PADRE, a small 13-mer non-natural pan HLA DR-binding sequence that is a potent T helper cell epitope (20 μg/mouse-Celtek Bioscience, Franklin, TN), and QuilA (adjuvant, 10 μg/mouse-Brenntag, Westbury, NY). Two doses of the vaccine were administered subcutaneously (s.c.) every seven days starting at an average tumor volume of 0.07-0.08 cm^3. Three days after the second vaccination, mice were sacrificed and expression of various markers was analyzed in cells from the tumors by flow cytometry
The frequency of CD62L^+CD44^− CD4^+ T cells in variously treated mice as described for FIG. 1A were determined. Error bars represent mean±SEM. (^NSnon-significant, *p≤0.05, **p≤0.01).
TC-1 tumor bearing mice were treated with an MEK inhibitor (MEKi) (10 mg/Kg), for a total of 15 doses, given everyday by oral gavage, starting when tumor reached an average size of 0.05 cm^3. […] The single-cell suspended tumors were labelled with appropriately conjugated fluorophore conjugated antibodies and analyzed by FACS.

Experiment [2] has as its system CD4 cells from the splenocytes of wild type (WT) mice. Nature of the experiment: In vitro assay of TSCM induction in activated CD4 cells (FACS). The class given is cell-based. The note with it: TCONV cells activated with IL-2/anti-CD3/anti-CD28, 72 hours, MEKi 1 uM, vs cells activated without MEK1/2 inhibitor; FIG. 2A. Here is the method: T conventional (TCONV) cells (from mouse spleen), defined as CD4^+FoxP3^− cells, were activated (Act) by IL-2 with anti-CD3/anti-CD28 in the presence (+) or absence (−) of MEK1/2 inhibitor for 72 hours, and the number of Sca1^+CD62L^+CD44^−CD4^+ T cells was determined by flow cytometry sorting (FACS).
CD4 cells from the splenocytes of wild type (WT) mice were prepared by magnetic purification using Biolegend cell sorting kits, as per the manufacturer's instructions. Purified cells were activated by plating 1×10^6/ml in cell activation medium that contained rIL-2 (100 IU/ml), anti-CD3 (5 ug/ml), anti-CD28 (2.5 ug/ml) and MEKi (1 uM). Appropriate arms (only cell activation and only IL-2 treatment) were also included for valid comparisons. After 72 hours of incubation at 37° C., at 5% CO2 in a humidified incubator, cells were picked up and processed for FACS analysis of TSCM induction.

Molecules are shown by their SMILES.

With `N#CC(=C(N)Sc1ccc(N)cc1)c1ccccc1C(F)(F)F` [MEK1/2 inhibitor], the “numbers of CD4+ T cells in the tumor microenvironment (TME)” value in experiment [1] (FIG. 1A) is listed as “increases”. Further, the “induction of CD4+ T cells with a naive-like phenotype (CD62L+CD44-) in the TME” value in experiment [1] (FIG. 1B) is reported as “significantly enhanced”. In experiment [2], the “generation of Sca1+ TNAIVE CD4+ T cells” value is on record as “significantly enhanced”.
